Experimental data taken from US5602146A, “4-iminoquinolines, processes for their preparation, and their use” (Hoechst Aktiengesellschaft, priority 1992, dated 1997).
pIC50: −log10 of the molar value. Converted amounts (≈) assume the structure as drawn.

Legend:
HIV = assay: Testing of preparations against HIV in a cell culture (T-Cell culture assay); assay type: cell-based; conditions: Human immunodeficiency virus 1, 72 h; HIV-infected lymphocytes, 37° C. for 3 days; lowest concentration at which no giant cells occurred; read-out: T-Cell culture assay Minimum inhibitory concentration
Experimental: Testing of preparations against HIV in a cell culture
Description of the method
The complete medium additionally contains 20% of fetal calf serum and 40 IU/ml of recombinant interleukin 2. Cells:
Lymphocytes isolated from fresh donor blood by means of Ficol® gradient centrifugation are cultured, with addition of […] of phytohemagglutinin (Wellcome) in the complete medium at 37° C. under 5% of CO2 for 36 hours. After addition of 10% of dimethyl sulfoxide, the cells are frozen at a cell density of 5×10^6 and stored in liquid nitrogen. For the experiment, the cells are thawed, washed in RPMI medium and cultured in the complete medium for 3-4 days.
The test preparations were dissolved in dimethyl sulfoxide in a concentration of 16.7 mg/ml and diluted to 1 mg/ml in complete medium.
0.4 ml of medium was initially introduced into 24-well multiwell dishes. After addition of 0.1 ml of the dissolved preparation into the upper row of the dish, a geometric dilution series was produced by transferring in each case 0.1 ml. Preparation-free controls always contained 0.4 ml of complete medium with 0.5% of dimethyl sulfoxide.
Lymphocyte cultures having a cell count of 5×10^5 cells/ml were infected by addition of 1/50 of the volume of supernatant from HIV-infected lymphocyte cultures. The titer of these culture supernatants was determined by end point dilution with 1-5×10^6 infectious units/ml. After incubation at 37° C. for 30 minutes, the infected lymphocytes were centrifuged off and taken up again in the same volume of medium. In each case 0.6 ml of this cell suspension was introduced into each of the depression walls of the test plate. The batches were incubated at 37° C. for 3 days.
The infected cell cultures were examined under the microscope for the presence of giant cells, which indicate active multiplication of the virus in the culture. The lowest concentration of preparation at which no giant cells occurred was determined as the inhibitory concentration against HIV. As a control, the supernatants from the culture plates were investigated for the presence of the HIV antigen with the aid of an HIV antigen test in accordance with the manufacturer's information (Organon).

[1] = biological target: T1, HIV "Reverse Transcriptase" (Human immunodeficiency virus type 1 group M subtype B, UniProt P04585); assay: Inhibition of HIV "Reverse Transcriptase" (Scintillation Proximity Assay); assay type: biochemical; conditions: RT-SPA, RT from HIV cloned in E. coli, 60 minutes (37° C.)
T1 construct: purchased HT-Biotechnology Ltd., Cambridge, UK; host or cells: E. coli
Experimental: Investigation of the substances for inhibition of HIV "Reverse Transcriptase"
The activity of reverse transcriptase (RT) was determined with the aid of a "Scintillation Proximity Assay" (SPA). The reagent kit for the RT-SPA was obtained from Amersham/Buchler (Braunschweig). The enzyme RT (from HIV cloned in E. coli) originated from HT-Biotechnology Ltd., Cambridge, UK.
The test was carried out in accordance with the method manual of the manufacturer Amersham--with the following modifications:
bovine serum albumin was added to the "assay" buffer to the final concentration of 0.5 mg/ml.
the test was carried out in Eppendorf reaction vessels with a batch volume of […].
the RT concentrate of the manufacturer (5000 U/ml) was diluted to an activity of 15 U/ml in tris-HCl buffer 20 mM; pH 7.2; 30% of glycerol.
the incubation time for the batches was 60 minutes (37° C.).
after the reaction had been stopped and after "development" with the bead suspension, […] of the batch were transferred to 4.5 ml of tris-HCl buffer, 10 mM; pH 7.4; 0.15M NaCl, and the tritium activity was measured in a β-counter.
Testing of the substances:
For a preliminary test of the inhibitor activity, the substances were dissolved in dimethyl sulfoxide (stock solution c=1 mg/ml) and tested in a dilution in dimethyl sulfoxide of 10^-1, 10^-2, 10^-3 and the like to determine IC50 values, the inhibitor stock solutions were further diluted in tris-HCl buffer, 50 mM, pH 8 and tested in suitable concentrations. The concentration associated with 50% enzyme inhibition was determined from the graph of RT activity against Log Cinh.

CCON=C1c2cc(Cl)ccc2NC(=O)C1(C)C [Example 2, anti-6-Chloro-3,3-dimethyl-4-(ethyloxyimino)-1,3-dihydroquinolin-2-one]
MIC (HIV): 0.2 µg/mL (≈ 0.75 µM) | pIC50 [1]: 7.08

CCON=C1c2cc(Cl)ccc2NC(=S)C1(C)C [Example 3, anti-6-Chloro-3,3-dimethyl-4-(ethyloxyimino)-l,3-dihydroquinoline-2-thione]
MIC (HIV): 0.008 µg/mL (≈ 0.0283 µM) | pIC50 [1]: 7.85

CCON=C1c2cc(Cl)ccc2NC(=O)C1(C)C [Example 4, syn-6-Chloro-3,3-dimethyl-4-(ethyloxyimino)-l,3-dihydroquinolin-2-one]
pIC50 [1]: 6.43 to 7.43

CCON=C1c2cc(Cl)ccc2NC(=S)C1(C)C [Example 5, syn-6-Chloro-3,3-dimethyl-4-(ethyloxyimino)-1,3-dihydroquinoline-2-thione]
Reverse transcriptase assay IC50 [1]: 1 to 10 ng/mL

CC(C)ON=C1c2cc(Cl)ccc2NC(=O)C1(C)C [Example 6, anti-6-Chloro-3,3-dimethyl-4-(isopropyloxyimino)-l,3dihydroquinolin-2-one]
MIC (HIV): 0.008 µg/mL (≈ 0.0285 µM) | pIC50 [1]: 7.45 to 8.45

CC(C)ON=C1c2cc(Cl)ccc2NC(=S)C1(C)C [Example 7, anti-6-Chloro-3,3-dimethyl-4-(isopropyloxyimino)-l,3-dihydroquinoline-2-thione]
MIC (HIV): 0.008 µg/mL (≈ 0.027 µM) | pIC50 [1]: 7.69

CCCON=C1c2cc(Cl)ccc2NC(=O)C1(C)C [Example 8, anti-6-Chloro-3,3-dimethyl-4-(n-propyloxyimino)-l,3-dihydroquinolin-2-one]
MIC (HIV): 0.2 µg/mL (≈ 0.712 µM) | pIC50 [1]: 6.45 to 7.45

CCCON=C1c2cc(Cl)ccc2NC(=S)C1(C)C [Example 9, anti-6-Chloro-3,3-dimethyl-4-(n-propyloxyimino)-1,3dihydroquinoline-2-thion]
MIC (HIV): 0.04 µg/mL (≈ 0.135 µM) | pIC50 [1]: 7.47 to 8.47

CC1(C)C(=O)Nc2ccc(Cl)cc2C1=NOCc1ccccc1 [Example 10A, anti-4-(Benzyloxyimino)-6-chloro-3,3-dimethyl-1,3-dihydroquinolin-2-one]
pIC50 [1]: < 4.52

CC1(C)C(=O)N(Cc2ccccc2)c2ccc(Cl)cc2C1=NOCc1ccccc1 [Example 10B, anti-(1-Benzyl)-4-(benzyloxyimino)-6-chloro-3,3-dimethyl-1,3-dihydroquinolin-2-one]
pIC50 [1]: < 4.62

CC1(C)C(=S)Nc2ccc(Cl)cc2C1=NOCc1ccccc1 [Example 16]
pIC50 [1]: 5.54 to 6.54

CC1(C)C(=O)Nc2ccc(Cl)cc2C1=NOCc1ccccc1[N+](=O)[O-] [Example 20]
pIC50 [1]: 4.57 to 5.57

CC1(C)C(=S)Nc2ccc(Cl)cc2C1=NOCc1ccccc1[N+](=O)[O-] [Example 21]
pIC50 [1]: 5.59 to 6.59

CC1(C)C(=O)Nc2ccc(Cl)cc2C1=NOCc1cccc(Cl)c1 [Example 23]
pIC50 [1]: 5.56 to 6.56

CC1(C)C(=S)Nc2ccc(Cl)cc2C1=NOCc1cccc(Cl)c1 [Example 24]
pIC50 [1]: 6.58 to 7.58

CC1(C)C(=S)Nc2ccc(Cl)cc2C1=NOCc1ccc(Cl)cc1 [Example 27]
pIC50 [1]: 4.58 to 5.58

CC1(C)C(=O)Nc2ccc(Cl)cc2C1=NOCc1ccccc1Cl [Example 29]
pIC50 [1]: 4.56 to 5.56

CC1(C)C(=S)Nc2ccc(Cl)cc2C1=NOCc1ccccc1Cl [Example 30]
pIC50 [1]: 5.58 to 6.58

COCCON=C1c2cc(Cl)ccc2NC(=O)C1(C)C [Example 32]
MIC (HIV): 1 µg/mL (≈ 3.37 µM) | pIC50 [1]: 5.47 to 6.47

COCCON=C1c2cc(Cl)ccc2NC(=S)C1(C)C [Example 33]
MIC (HIV): 0.2 µg/mL (≈ 0.639 µM) | pIC50 [1]: ~7.50

CON=C1c2cc(Cl)ccc2NC(=O)C1(C)C [Example 34]
pIC50 [1]: 6.40 to 7.40

CON=C1c2cc(Cl)ccc2NC(=S)C1(C)C [Example 35]
pIC50 [1]: 7.43 to 8.43

CCC1C(=O)Nc2ccc(Cl)cc2C1=NO (stereo not drawn) [Example 38]
pIC50 [1]: 4.38 to 5.38

CCON=C1c2cc(Cl)ccc2NC(=O)C1CC (stereo not drawn) [Example 39]
MIC (HIV): 1 µg/mL (≈ 3.75 µM) | pIC50 [1]: 6.43 to 7.43

CCC1C(=O)Nc2ccc(Cl)cc2C1=NOC(C)C (stereo not drawn) [Example 40]
pIC50 [1]: 6.45 to 7.45

CCC1C(=N)c2cc(Cl)ccc2NC1=S (stereo not drawn) [Example 42]
pIC50 [1]: 4.38 to 5.38

CCON=C1c2cc(OC)ccc2NC(=S)C1(C)C [Example 43]
pIC50 [1]: 7.44 to 8.44

COc1ccc2c(c1)C(=NOC(C)C)C(C)(C)C(=O)N2 [Example 44]
pIC50 [1]: ~7.44

COc1ccc2c(c1)C(=NOC(C)C)C(C)(C)C(=S)N2 [Example 45]
pIC50 [1]: 7.47 to 8.47

C=CCON=C1c2cc(Cl)ccc2NC(=O)C1(C)C [Example 47]
pIC50 [1]: 6.45 to 7.45

C=CCON=C1c2cc(Cl)ccc2NC(=S)C1(C)C [Example 48]
MIC (HIV): 0.04 µg/mL (≈ 0.136 µM) | pIC50 [1]: 7.47 to 8.47

CSCCON=C1c2cc(Cl)ccc2NC(=O)C1(C)C [Example 49]
pIC50 [1]: 5.50 to 6.50

CSCCON=C1c2cc(Cl)ccc2NC(=S)C1(C)C [Example 50]
MIC (HIV): 0.2 µg/mL (≈ 0.608 µM) | pIC50 [1]: 6.52 to 7.52

C#CCON=C1c2cc(Cl)ccc2NC(=O)C1(C)C [Example 51]
pIC50 [1]: 6.44 to 7.44

CCC(C)ON=C1c2cc(Cl)ccc2NC(=O)C1(C)C (stereo not drawn) [Example 52]
pIC50 [1]: 6.47 to 7.47

CC(C)=NN=C1c2cc(Cl)ccc2NC(=S)C1(C)C [Example 62]
MIC (HIV): 0.04 µg/mL (≈ 0.136 µM) | pIC50 [1]: 7.47 to 8.47

CCC(C)ON=C1c2cc(Cl)ccc2NC(=S)C1(C)C (stereo not drawn) [Example 67]
MIC (HIV): 0.04 µg/mL (≈ 0.129 µM) | pIC50 [1]: 6.49 to 7.49

CCON=C1c2cc(Cl)ccc2NC(=NO)C1(C)C [Example 70, anti-6-Chloro-3,3,-dimethyl-4-(ethyloxyimino)-2-hydroxyimino-1,3-dihydroquinoline]
pIC50 [1]: 7.45 to 8.45

CSc1ccc2c(c1)C(=NOC(C)C)C(C)(C)C(=O)N2 [Example 78]
pIC50 [1]: 6.47 to 7.47

CSc1ccc2c(c1)C(=NOC(C)C)C(C)(C)C(=S)N2 [Example 82]
MIC (HIV): < 0.08 µg/mL | pIC50 [1]: 6.49 to 7.49

CC(C)ON=C1c2cc(OC(F)(F)F)ccc2NC(=S)C1(C)C [Example 87]
MIC (HIV): 0.04 µg/mL (≈ 0.115 µM) | pIC50 [1]: 6.54 to 7.54

CCON=C1c2cc(Cc3ccncc3)ccc2NC(=O)C1(C)C [Example 103]
MIC (HIV): 0.04 µg/mL (≈ 0.124 µM) | pIC50 [1]: 6.51 to 7.51

CCON=C1c2cc(Cc3ccncc3)ccc2NC(=S)C1(C)C [Example 104]
MIC (HIV): 0.04 µg/mL (≈ 0.118 µM) | pIC50 [1]: ~7.53

CCON=C1c2cc(Cl)ccc2NC(=O)C12CCC2 [Example 114]
pIC50 [1]: 7.67

CCON=C1c2cc(Cl)ccc2NC(=S)C12CCC2 [Example 115]
MIC (HIV): 0.04 µg/mL (≈ 0.136 µM) | pIC50 [1]: 7.47 to 8.47

CC(C)ON=C1c2cc(Cl)ccc2NC(=S)C12CCCC2 [Example 117]
pIC50 [1]: 7.51 to 8.51

CCC1(CC)C(=O)Nc2ccc(Cl)cc2C1=NOC(C)C [Example 119]
MIC (HIV): 0.008 µg/mL (≈ 0.0259 µM) | pIC50 [1]: 7.49 to 8.49

CC(C)ON=C1c2cc(Cl)ccc2NC(=S)C12CCC2 [Example 120]
pIC50 [1]: 7.49 to 8.49

CCON=C1c2cc(Cl)ccc2NC(=S)C12CCCC2 [Example 122]
MIC (HIV): 0.008 µg/mL (≈ 0.0259 µM)

CC(C)ON=C1c2cc(Cl)ccc2NC(=O)C12CCCC2 [Example 123]
pIC50 [1]: 7.49 to 8.49

CCON=C1c2cc(OCC)ccc2NC(=NO)C1(C)C [Example 124]
MIC (HIV): 0.4 µg/mL (≈ 1.37 µM) | pIC50 [1]: ~6.46

CCON=C1c2cc(Cl)ccc2N=C(Nc2ccccc2)C1(C)C [Example 131]
MIC (HIV): 1 µg/mL (≈ 2.93 µM) | pIC50 [1]: 6.53 to 7.53

CCON=C1c2cc(Cl)ccc2N=C(Nc2ccc(Cl)cc2)C1(C)C [Example 132]
pIC50 [1]: ~6.58

anti-6-Chloro-3,3-dimethyl-4-(isopropylazino)-1,3-dihydroquinolin-2-one [Example 12]
Reverse transcriptase assay IC50 [1]: 10 to 100 ng/mL
